{"source": "patent US12060347B2", "about": "(BRISTOL-MYERS SQUIBB COMPANY, priority 2016, dated 2024)", "target": "T1, human PAR4 (Homo sapiens, UniProt Q96RI0)", "T1 construct": "expressed in transfected cells; host or cells: HEK293 PAR4 Clone 1.2A (BMS Arctic ID 383940)", "T1 sequence (Q96RI0 18-385)": "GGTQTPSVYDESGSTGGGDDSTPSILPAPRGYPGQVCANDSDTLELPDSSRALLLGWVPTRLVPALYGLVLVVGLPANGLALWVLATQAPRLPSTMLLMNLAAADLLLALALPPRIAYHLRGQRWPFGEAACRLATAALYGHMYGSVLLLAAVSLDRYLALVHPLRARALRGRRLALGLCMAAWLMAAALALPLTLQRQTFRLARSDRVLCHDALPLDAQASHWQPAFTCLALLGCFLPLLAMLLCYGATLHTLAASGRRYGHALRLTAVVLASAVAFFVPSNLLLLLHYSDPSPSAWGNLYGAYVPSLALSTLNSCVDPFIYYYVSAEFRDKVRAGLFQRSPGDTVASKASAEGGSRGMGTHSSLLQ", "assay": "PAR4 FLIPR assay: antagonism of agonist-peptide-induced calcium mobilization in PAR4-expressing HEK293 cells", "type": "cell-based", "conditions": "H-Ala-Phe(4-F)-[…]NH2-induced intracellular calcium mobilization, 11-point curves"}
{"smiles": "COc1cnc2c(-c3nc4cc(F)c(OC[C@@H](C)OC(=O)Nc5cncnc5)cc4s3)cc(C)cc2n1", "note": "[Example 409, (R)-1-((5-fluoro-2-(2-methoxy-7-methylquinoxalin-5-yl)benzo[d]thiazol-6-yl)oxy)propan-2-yl pyrimidin-5-ylcarbamate]", "values": [{"measurement": "IC50", "result": 0.4, "unit": "nM"}]}
{"smiles": "COc1cnc2c(-c3nc4cc(F)c(O[C@@H](C)[C@@H](C)OC(=O)Nc5cncnc5)cc4s3)cc(C)cc2n1", "note": "[Example 410, (2R,3S)-3-((5-fluoro-2-(2-methoxy-7-methylquinoxalin-5-yl)benzo[d]thiazol-6-yl)oxy)butan-2-yl pyrimidin-5-ylcarbamate]", "values": [{"measurement": "IC50", "result": 0.3, "unit": "nM"}]}
{"smiles": "COc1cnc2c(-c3nc4cc(F)c(OC[C@@H](C)OC(=O)Nc5ccccc5)cc4s3)cc(C)cc2n1", "note": "[Example 411, (R)-1-((5-fluoro-2-(2-methoxy-7-methylquinoxalin-5-yl)benzo[d]thiazol-6-yl)oxy)propan-2-yl phenylcarbamate]", "values": [{"measurement": "IC50", "result": 4.4, "unit": "nM"}]}
{"smiles": "COc1cc(NC(=O)O[C@H](C)[C@H](C)Oc2cc3sc(-c4cc(C)cc5nc(OC)cnc45)nc3cc2F)ccn1", "note": "[Example 412, (2R,3S)-3-((5-fluoro-2-(2-methoxy-7-methylquinoxalin-5-yl)benzo[d]thiazol-6-yl)oxy)butan-2-yl (2-methoxypyridin-4-yl)carbamate]", "values": [{"measurement": "IC50", "result": 0.3, "unit": "nM"}]}
{"smiles": "COc1cnc2c(-c3nc4cc(F)c(O[C@@H](C)[C@@H](C)OC(=O)Nc5ccnnc5)cc4s3)cc(C)cc2n1", "note": "[Example 413, (2R,3S)-3-((5-fluoro-2-(2-methoxy-7-methylquinoxalin-5-yl)benzo[d]thiazol-6-yl)oxy)butan-2-yl pyridazin-4-ylcarbamate]", "values": [{"measurement": "IC50", "result": 3.4, "unit": "nM"}]}
{"smiles": "CCCc1ncc(NC(=O)O[C@H](C)[C@H](C)Oc2cc3sc(-c4cc(C)cc5nc(OC)cnc45)nc3cc2F)cn1", "note": "[Example 414, (2R,3S)-3-((5-fluoro-2-(2-methoxy-7-methylquinoxalin-5-yl)benzo[d]thiazol-6-yl)oxy)butan-2-yl (2-propylpyrimidin-5-yl)carbamate]", "values": [{"measurement": "IC50", "result": 7, "unit": "nM"}]}
{"smiles": "COc1cnc2c(-c3nc4cc(F)c(O[C@@H](C)[C@@H](C)OC(=O)Nc5cnc(C(F)(F)F)nc5)cc4s3)cc(C)cc2n1", "note": "[Example 415, (2R,3S)-3-((5-fluoro-2-(2-methoxy-7-methylquinoxalin-5-yl)benzo[d]thiazol-6-yl)oxy)butan-2-yl (2-(trifluoromethyl)pyrimidin-5-yl)carbamate]", "values": [{"measurement": "IC50", "result": 3.1, "unit": "nM"}]}
{"smiles": "COc1cnc2c(-c3nc4cc(F)c(O[C@@H](C)[C@@H](C)OC(=O)Nc5ccc(C)nn5)cc4s3)cc(C)cc2n1", "note": "[Example 416, (2R,3S)-3-((5-fluoro-2-(2-methoxy-7-methylquinoxalin-5-yl)benzo[d]thiazol-6-yl)oxy)butan-2-yl (6-methylpyridazin-3-yl)carbamate]", "values": [{"measurement": "IC50", "result": 32, "unit": "nM"}]}
{"smiles": "COc1cnc2c(-c3nc4cc(F)c(O[C@@H](C)[C@@H](C)OC(=O)Nc5cnc(C)cn5)cc4s3)cc(C)cc2n1", "note": "[Example 417, (2R,3S)-3-((5-fluoro-2-(2-methoxy-7-methylquinoxalin-5-yl)benzo[d]thiazol-6-yl)oxy)butan-2-yl (5-methylpyrazin-2-yl)carbamate]", "values": [{"measurement": "IC50", "result": 11, "unit": "nM"}]}
{"smiles": "COc1cnc2c(-c3nc4cc(F)c(O[C@@H](C)[C@@H](C)OC(=O)Nc5cnnc(C)c5)cc4s3)cc(C)cc2n1", "note": "[Example 418, (2R,3S)-3-((5-fluoro-2-(2-methoxy-7-methylquinoxalin-5-yl)benzo[d]thiazol-6-yl)oxy)butan-2-yl (6-methylpyridazin-4-yl)carbamate]", "values": [{"measurement": "IC50", "result": 1.3, "unit": "nM"}]}
{"smiles": "COc1cnc2c(-c3nc4cc(F)c(O[C@@H](C)[C@@H](C)OC(=O)Nc5cncc(C)c5)cc4s3)cc(C)cc2n1", "note": "[Example 419, (2R,3S)-3-((5-fluoro-2-(2-methoxy-7-methylquinoxalin-5-yl)benzo[d]thiazol-6-yl)oxy)butan-2-yl (5-methylpyridin-3-yl)carbamate]", "values": [{"measurement": "IC50", "result": 2, "unit": "nM"}]}
{"smiles": "COc1cncc(NC(=O)O[C@H](C)[C@H](C)Oc2cc3sc(-c4cc(C)cc5nc(OC)cnc45)nc3cc2F)c1", "note": "[Example 420, (2R,3S)-3-((5-fluoro-2-(2-methoxy-7-methylquinoxalin-5-yl)benzo[d]thiazol-6-yl)oxy)butan-2-yl (5-methoxypyridin-3-yl)carbamate]", "values": [{"measurement": "IC50", "result": 2.2, "unit": "nM"}]}
{"smiles": "COc1cnc2c(-c3nc4cc(F)c(O[C@@H](C)[C@@H](C)OC(=O)Nc5cncc(C#N)c5)cc4s3)cc(C)cc2n1", "note": "[Example 421, (2R,3S)-3-((5-fluoro-2-(2-methoxy-7-methylquinoxalin-5-yl)benzo[d]thiazol-6-yl)oxy)butan-2-yl (5-cyanopyridin-3-yl)carbamate]", "values": [{"measurement": "IC50", "result": 1.8, "unit": "nM"}]}
{"smiles": "COc1cnc2c(-c3nc4cc(F)c(O[C@@H](C)[C@@H](C)OC(=O)Nc5cnc(OC)c(C)c5)cc4s3)cc(C)cc2n1", "note": "[Example 422, (2R,3S)-3-((5-fluoro-2-(2-methoxy-7-methylquinoxalin-5-yl)benzo[d]thiazol-6-yl)oxy)butan-2-yl (6-methoxy-5-methylpyridin-3-yl)carbamate]", "values": [{"measurement": "IC50", "result": 2.2, "unit": "nM"}]}
{"smiles": "COc1cnc2c(-c3nc4cc(F)c(O[C@@H](C)[C@@H](C)OC(=O)Nc5cccnc5)cc4s3)cc(C)cc2n1", "note": "[Example 423, (2R,3S)-3-((5-fluoro-2-(2-methoxy-7-methylquinoxalin-5-yl)benzo[d]thiazol-6-yl)oxy)butan-2-yl pyridin-3-ylcarbamate]", "values": [{"measurement": "IC50", "result": 4.2, "unit": "nM"}]}
{"smiles": "COc1cnc2c(-c3nc4cc(F)c(O[C@@H](C)[C@@H](C)OC(=O)Nc5ccc(C(=O)N6CCOCC6)nc5)cc4s3)cc(C)cc2n1", "note": "[Example 426, (2R,3S)-3-((5-fluoro-2-(2-methoxy-7-methylquinoxalin-5-yl)benzo[d]thiazol-6-yl)oxy)butan-2-yl (6-(morpholine-4-carbonyl)pyridin-3-yl)carbamate]", "values": [{"measurement": "IC50", "result": 5.4, "unit": "nM"}]}
{"smiles": "COc1cnc2c(-c3nc4c(Cl)c(F)c(OC[C@@H](C)OC(=O)Nc5ccnc(C(N)=O)c5)cc4s3)cc(C)cc2n1", "note": "[Example 427, (R)-1-((4-chloro-5-fluoro-2-(2-methoxy-7-methylquinoxalin-5-yl)benzo[d]thiazol-6-yl)oxy)propan-2-yl (2-carbamoylpyridin-4-yl)carbamate]", "values": [{"measurement": "IC50", "result": 7.6, "unit": "nM"}]}
{"smiles": "CNC(=O)c1cc(NC(=O)O[C@H](C)COc2cc3sc(-c4cc(C)cc5nc(OC)cnc45)nc3c(Cl)c2F)ccn1", "note": "[Example 428, (R)-1-((4-chloro-5-fluoro-2-(2-methoxy-7-methylquinoxalin-5-yl)benzo[d]thiazol-6-yl)oxy)propan-2-yl (2-(methyl carbamoyl)pyridin-4-yl)carbamate]", "values": [{"measurement": "IC50", "result": 5.9, "unit": "nM"}]}
{"smiles": "COc1cnc2c(-c3nc4cc(F)c(OC[C@@H](C)OC(=O)Nc5cnc(C(N)=O)nc5)cc4s3)cc(C)cc2n1", "note": "[Example 429, (R)-1-((5-fluoro-2-(2-methoxy-7-methylquinoxalin-5-yl)benzo[d]thiazol-6-yl)oxy)propan-2-yl (2-carbamoylpyrimidin-5-yl)carbamate]", "values": [{"measurement": "IC50", "result": 0.5, "unit": "nM"}]}
{"smiles": "CNC(=O)c1ncc(NC(=O)O[C@H](C)COc2cc3sc(-c4cc(C)cc5nc(OC)cnc45)nc3cc2F)cn1", "note": "[Example 430, (R)-1-((5-fluoro-2-(2-methoxy-7-methylquinoxalin-5-yl)benzo[d]thiazol-6-yl)oxy)propan-2-yl (2-(methylcarbamoyl)pyrimidin-5-yl)carbamate]", "values": [{"measurement": "IC50", "result": 0.9, "unit": "nM"}]}
{"smiles": "COc1cnc2c(-c3nc4cc(F)c(OC[C@@H](C)OC(=O)Nc5cnc(C(=O)N(C)C)nc5)cc4s3)cc(C)cc2n1", "note": "[Example 431, (R)-1-((5-fluoro-2-(2-methoxy-7-methylquinoxalin-5-yl)benzo[d]thiazol-6-yl)oxy)propan-2-yl (2-(dimethylcarbamoyl)pyrimidin-5-yl)carbamate]", "values": [{"measurement": "IC50", "result": 1.1, "unit": "nM"}]}
{"smiles": "CNC(=O)c1ccc(NC(=O)O[C@H](C)COc2cc3sc(-c4cc(C)cc5nc(OC)cnc45)nc3cc2F)cn1", "note": "[Example 432, (R)-1-((5-fluoro-2-(2-methoxy-7-methylquinoxalin-5-yl)benzo[d]thiazol-6-yl)oxy)propan-2-yl (6-(methylcarbamoyl)pyridin-3-yl)carbamate]", "values": [{"measurement": "IC50", "result": 0.4, "unit": "nM"}]}
{"smiles": "COc1cnc2c(-c3nc4cc(F)c(OC[C@@H](C)OC(=O)Nc5ccc(C(N)=O)nc5)cc4s3)cc(C)cc2n1", "note": "[Example 433, (R)-1-((5-fluoro-2-(2-methoxy-7-methylquinoxalin-5-yl)benzo[d]thiazol-6-yl)oxy)propan-2-yl (6-carbamoylpyridin-3-yl)carbamate]", "values": [{"measurement": "IC50", "result": 0.6, "unit": "nM"}]}
{"smiles": "COc1cnc2c(-c3nc4cc(F)c(OC[C@@H](C)OC(=O)Nc5ccc(C(N)=O)nc5)cc4s3)cc(C)cc2n1", "note": "[Example 434, (R)-1-((5-fluoro-2-(2-methoxy-7-methylquinoxalin-5-yl)benzo[d]thiazol-6-yl)oxy)propan-2-yl (6-carbamoylpyridin-3-yl)carbamate]", "values": [{"measurement": "IC50", "result": 1.4, "unit": "nM"}]}
{"smiles": "COc1cnc2c(-c3nc4cc(F)c(OC[C@@H](C)OC(=O)Nc5ccc(C(=O)N6CCOCC6)nc5)cc4s3)cc(C)cc2n1", "note": "[Example 435, (R)-1-((5-fluoro-2-(2-methoxy-7-methylquinoxalin-5-yl)benzo[d]thiazol-6-yl)oxy)propan-2-yl (6-(morpholine-4-carbonyl)pyridin-3-yl)carbamate]", "values": [{"measurement": "IC50", "result": 0.9, "unit": "nM"}]}
{"smiles": "CNC(=O)c1ccc(NC(=O)O[C@H](C)[C@H](C)Oc2cc3sc(-c4cc(C)cc5nc(OC)cnc45)nc3cc2F)cn1", "note": "[Example 436, (2R,3S)-3-((5-fluoro-2-(2-methoxy-7-methylquinoxalin-5-yl)benzo[d]thiazol-6-yl)oxy)butan-2-yl (6-(methylcarbamoyl)pyridin-3-yl)carbamate]", "values": [{"measurement": "IC50", "result": 1.5, "unit": "nM"}]}
